Assay results published in publication PMC11708041, “Structural basis of a microbial trimethylamine transporter” (mBio, 2024).

T1: TmaT (Myroides profundi, UniProt A0A0B5RUB0)
T1 construct: full-length, 529 residues, C-terminal 8xHis tag (pET-22b), expressed in E. coli C43(DE3), DDM-solubilised; homotrimer
T1 sequence (A0A0B5RUB0 1-529): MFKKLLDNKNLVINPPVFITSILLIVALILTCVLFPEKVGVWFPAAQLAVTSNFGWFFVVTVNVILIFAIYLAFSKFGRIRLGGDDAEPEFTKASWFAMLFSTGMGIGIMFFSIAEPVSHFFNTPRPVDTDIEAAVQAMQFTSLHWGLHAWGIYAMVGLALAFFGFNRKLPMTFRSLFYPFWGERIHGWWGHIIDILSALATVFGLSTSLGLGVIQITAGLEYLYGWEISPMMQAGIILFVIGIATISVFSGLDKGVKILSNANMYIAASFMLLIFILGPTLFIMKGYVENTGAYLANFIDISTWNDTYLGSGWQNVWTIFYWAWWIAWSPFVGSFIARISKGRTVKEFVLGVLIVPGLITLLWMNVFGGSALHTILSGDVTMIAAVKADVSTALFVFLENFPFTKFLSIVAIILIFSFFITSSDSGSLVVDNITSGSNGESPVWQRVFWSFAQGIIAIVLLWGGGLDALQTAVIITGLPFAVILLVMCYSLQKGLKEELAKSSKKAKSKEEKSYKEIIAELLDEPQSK

B1: TmaT, TMA transporter of Myroides profundi D25 (natural protein, UniProt A0A0B5RUB0 1-529, looked up)
chain: T1 sequence (A0A0B5RUB0 1-529)
notes: TmaT, trimethylamine transporter of the betaine-choline-carnitine transporter (BCCT) family, Myroides profundi D25; full-length tmaT, 1,590 nucleotides encoding a 529-amino-acid polypeptide; no removal of the tag is described; Homotrimer in the cryo-EM structures; also called recombinant TmaT; WT TmaT

How the values were obtained:
[1] = target: T1, TmaT; assay: microscale thermophoresis; type: binding
Source text: microscale thermophoresis on TmaT

[2] = target: the molecule itself; assay: cryo-EM structure; single-particle cryo-EM of purified TmaT (about 8 mg/mL, in DDM); apo TmaT, and with 2 mM or 5 mM TMA; homotrimer

Molecule	Kd [1]	stoichiometry N [2]
CN(C)C [TMA]	49 ± 9.4 µM	–
B1	–	3
